Several values for one entry are separate records, joined by “and”; a condition that tells them apart may be missing. Equal entries are not always repeated. Inconclusive results and toxic doses are left out.
Test system: P388 leukemia ip, CD2F1 mice, survival T/C
Experiment: NCI In Vivo Anticancer Drug Screen. Data for tumor model P388 Leukemia (intraperitoneal) in CD2F1 (CDF1) mice
Conditions: endpoint: median survival time, higher = longer survival
How it was run: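 Mice carrying the transplanted tumor received test compound or vehicle. Survival was recorded in each group, and the value is the treated-group measurement divided by that of the vehicle-treated control group.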

[1] = dose: 100.0 mg/kg/injection, schedule: Q04DX003 (ip), vehicle: Klucel (hydroxypropylcellulose) (HPC)
[2] = dose: 200.0 mg/kg/injection, schedule: Q04DX003 (ip), vehicle: Klucel (hydroxypropylcellulose) (HPC)
[3] = dose: 50.0 mg/kg/injection, schedule: Q01DX009 (ip), vehicle: saline with Tween-80
[4] = dose: 100.0 mg/kg/injection, schedule: Q01DX009 (ip), vehicle: saline with Tween-80
[5] = dose: 200.0 mg/kg/injection, schedule: Q01DX009 (ip), vehicle: saline with Tween-80
[6] = dose: 50.0 mg/kg/injection, schedule: Q01DX005 (ip), vehicle: saline with Tween-80
[7] = dose: 100.0 mg/kg/injection, schedule: Q01DX005 (ip), vehicle: saline with Tween-80
[8] = dose: 200.0 mg/kg/injection, schedule: Q01DX005 (ip), vehicle: saline with Tween-80
[9] = dose: 60.0 mg/kg/injection, schedule: Q01DX005 (ip), vehicle: saline with Tween-80
[10] = dose: 120.0 mg/kg/injection, schedule: Q01DX005 (ip), vehicle: saline with Tween-80
[11] = dose: 240.0 mg/kg/injection, schedule: Q01DX005 (ip), vehicle: saline with Tween-80
[12] = dose: 6.25 mg/kg/injection, schedule: Q01DX009 (ip), vehicle: saline with Tween-80
[13] = dose: 12.5 mg/kg/injection, schedule: Q01DX009 (ip), vehicle: saline with Tween-80
[14] = dose: 50.0 mg/kg/injection, schedule: Q01DX009 (ip), vehicle: Klucel (hydroxypropylcellulose) (HPC)
[15] = dose: 50.0 mg/kg/injection, schedule: Q01DX005 (ip), vehicle: Klucel (hydroxypropylcellulose) (HPC)
[16] = dose: 100.0 mg/kg/injection, schedule: Q01DX005 (ip), vehicle: Klucel (hydroxypropylcellulose) (HPC)
[17] = dose: 100.0 mg/kg/injection, schedule: Q01DX009 (ip), vehicle: Klucel (hydroxypropylcellulose) (HPC)
[18] = dose: 200.0 mg/kg/injection, schedule: Q01DX009 (ip), vehicle: Klucel (hydroxypropylcellulose) (HPC)
[19] = dose: 400.0 mg/kg/injection, schedule: Q01DX009 (ip), vehicle: Klucel (hydroxypropylcellulose) (HPC)

SMILES: Nc1ccc(S(=O)(=O)CCCl)cc1
- T/C (dose: 12.5 mg/kg/injection, schedule: Q04DX003 (ip), vehicle: Klucel (hydroxypropylcellulose) (HPC)): 96 % of control
- T/C (dose: 25.0 mg/kg/injection, schedule: Q04DX003 (ip), vehicle: Klucel (hydroxypropylcellulose) (HPC)): 102 % of control
- T/C (dose: 50.0 mg/kg/injection, schedule: Q04DX003 (ip), vehicle: Klucel (hydroxypropylcellulose) (HPC)): 105 % of control
- T/C [1]: 107 % of control
- T/C [2]: 112 % of control

SMILES: N#CC1=C(C#N)CC(c2ccccc2)CC1 (centres undefined)
- T/C (dose: 50.0 mg/kg/injection, schedule: Q01DX009 (ip), vehicle: saline): 104 % of control
- T/C (dose: 100.0 mg/kg/injection, schedule: Q01DX009 (ip), vehicle: saline): 100 % of control
- T/C (dose: 200.0 mg/kg/injection, schedule: Q01DX009 (ip), vehicle: saline): 96 % of control

SMILES: CC(=O)Oc1ccccc1C#CC(=O)O
- T/C [3]: 96 % of control
- T/C [4]: 90 % of control
- T/C [5]: 94 % of control

SMILES: CCCC1OCC(O)C(C(O)C(=O)CN(C)c2ccccc2)O1 (centres undefined)
- T/C [6]: 98 % of control
- T/C [7]: 100 % of control
- T/C [8]: 98 % of control

SMILES: CN(C)c1ccc2c(c1)c1cc(N(C)C)ccc1n2Cc1ccccc1
- T/C [9]: 102 % of control
- T/C [10]: 94 % of control
- T/C [11]: 98 % of control

SMILES: NC(CCSCc1ccc(N(CCCl)CCCl)cc1)C(=O)O (centres undefined)
- T/C (dose: 3.13 mg/kg/injection, schedule: Q04DX003 (ip), vehicle: saline with Tween-80): 154 % of control
- T/C [12]: 118 % of control
- T/C (dose: 6.25 mg/kg/injection, schedule: Q04DX003 (ip), vehicle: saline with Tween-80): 163 % of control
- T/C [13]: 122 % of control
- T/C (dose: 12.5 mg/kg/injection, schedule: Q04DX003 (ip), vehicle: saline with Tween-80): 190 % of control
- T/C (dose: 25.0 mg/kg/injection, schedule: Q01DX009 (ip), vehicle: saline with Tween-80): 163 % of control and 227 % of control
- T/C (dose: 25.0 mg/kg/injection, schedule: Q04DX003 (ip), vehicle: saline with Tween-80): 181 % of control
- T/C [3]: 95 % of control
- T/C (dose: 50.0 mg/kg/injection, schedule: Q04DX003 (ip), vehicle: saline with Tween-80): 263 % of control
- T/C (dose: 100.0 mg/kg/injection, schedule: Q04DX003 (ip), vehicle: saline with Tween-80): 222 % of control and 231 % of control

SMILES: CCO
- T/C (dose: 250.0 mg/kg/injection, schedule: Q01DX009 (ip), vehicle: saline with Tween-80): 95 % of control
- T/C (dose: 0.5 % in 0.5 ml injection vol, schedule: Q01DX009 (ip), vehicle: water): 94 % of control
- T/C (dose: 500.0 mg/kg/injection, schedule: Q01DX009 (ip), vehicle: saline with Tween-80): 90 % of control
- T/C (dose: 1.0 % in 0.5 ml injection vol, schedule: Q01DX009 (ip), vehicle: water): 92 % of control
- T/C (dose: 1000.0 mg/kg/injection, schedule: Q01DX009 (ip), vehicle: saline with Tween-80): 95 % of control
- T/C (dose: 2.0 % in 0.5 ml injection vol, schedule: Q01DX009 (ip), vehicle: water): 102 % of control and 94 % of control
- T/C (dose: 2000.0 mg/kg/injection, schedule: Q01DX009 (ip), vehicle: saline with Tween-80): 95 % of control
- T/C (dose: 4.0 % in 0.5 ml injection vol, schedule: Q01DX009 (ip), vehicle: water): 101 % of control and 106 % of control
- T/C (dose: 8.0 % in 0.5 ml injection vol, schedule: Q01DX009 (ip), vehicle: water): 100 % of control and 103 % of control
- T/C (dose: 16.0 % in 0.5 ml injection vol, schedule: Q01DX009 (ip), vehicle: water): 100 % of control

SMILES: CCCCCCCCCCCCCCCCCCSC1=CC(=O)C(OC)=C(OC)C1=O
- T/C (dose: 3.13 mg/kg/injection, schedule: Q01DX009 (ip), vehicle: Klucel (hydroxypropylcellulose) (HPC)): 92 % of control
- T/C (dose: 6.25 mg/kg/injection, schedule: Q01DX009 (ip), vehicle: Klucel (hydroxypropylcellulose) (HPC)): 100 % of control
- T/C (dose: 12.5 mg/kg/injection, schedule: Q01DX009 (ip), vehicle: Klucel (hydroxypropylcellulose) (HPC)): 100 % of control
- T/C (dose: 25.0 mg/kg/injection, schedule: Q01DX009 (ip), vehicle: Klucel (hydroxypropylcellulose) (HPC)): 92 % of control
- T/C [14]: 97 % of control

SMILES: Cc1nc2c(cnn2C)c(=O)n1C(C)C
- T/C [15]: 104 % of control
- T/C [16]: 112 % of control
- T/C (dose: 200.0 mg/kg/injection, schedule: Q01DX005 (ip), vehicle: Klucel (hydroxypropylcellulose) (HPC)): 111 % of control

SMILES: COc1cc(N(CCCl)CCCl)ccc1C=Nc1ccccc1C(=O)O
- T/C (dose: 12.37 mg/kg/injection, schedule: Q04DX003 (ip), vehicle: saline with Tween-80): 195 % of control
- T/C (dose: 18.75 mg/kg/injection, schedule: Q04DX003 (ip), vehicle: saline with Tween-80): 181 % of control and 268 % of control

SMILES: COc1cccc2cc(-c3c[nH]c4ccccc34)c(=O)oc12
- T/C [9]: 105 % of control
- T/C [10]: 98 % of control
- T/C [11]: 95 % of control

SMILES: CCCCNC1=C(Cl)C(=O)c2ccccc2C1=O
- T/C [14]: 92 % of control
- T/C [17]: 92 % of control
- T/C [18]: 91 % of control
- T/C [19]: 105 % of control

SMILES: NC(=S)NNCCC(=O)Nc1ccccc1C(F)(F)F
- T/C [9]: 94 % of control
- T/C [10]: 94 % of control
- T/C [11]: 96 % of control

SMILES: Cc1c(COC(=O)NC(C)C)c(COC(=O)NC(C)C)c2n1CSC2
- T/C (dose: 6.25 mg/kg/injection, schedule: Q01DX005 (ip), vehicle: Klucel + Tween-80): 154 % of control
- T/C (dose: 25.0 mg/kg/injection, schedule: Q01DX005 (ip), vehicle: Klucel + Tween-80): 169 % of control and 173 % of control

SMILES: CC(C)NCC(O)COc1ccc(CCOC(=O)CCc2ccc(C(O)(C(F)(F)F)C(F)(F)F)cc2)cc1 (centres undefined)
- T/C (dose: 30.0 mg/kg/injection, schedule: Q01DX005 (ip), vehicle: saline with Tween-80): 98 % of control
- T/C [9]: 96 % of control
- T/C [10]: 102 % of control

SMILES: Cc1n[nH]c(=S)n1N
- T/C [14]: 94 % of control
- T/C [17]: 93 % of control
- T/C [18]: 95 % of control
- T/C [19]: 88 % of control

SMILES: CCOC(=O)C1=NN(c2ccccc2)C(C(=O)OC)[C@@H]1C(=O)OC (some centres undefined)
- T/C [9]: 99 % of control
- T/C [10]: 98 % of control
- T/C [11]: 96 % of control

SMILES: COC(=O)/C=C(\I)C(=O)OC
- T/C (dose: 3.13 mg/kg/injection, schedule: Q01DX009 (ip), vehicle: saline with Tween-80): 104 % of control
- T/C [12]: 101 % of control
- T/C [13]: 92 % of control

SMILES: COc1cc2c(cc1OC)C(Cc1cccs1)=NCC2
- T/C [15]: 100 % of control
- T/C [16]: 94 % of control

SMILES: C=CCSc1nc2ccc(NCn3c(=S)sc4cc([N+](=O)[O-])ccc43)cc2s1
- T/C [1]: 90 % of control
- T/C [2]: 86 % of control

SMILES: CCc1cc(CN2CCN(CCO)CC2)c(O)c(CN2CCN(CCO)CC2)c1
- T/C (dose: 60.0 mg/kg/injection, schedule: Q01DX005 (ip), vehicle: saline): 102 % of control
- T/C (dose: 120.0 mg/kg/injection, schedule: Q01DX005 (ip), vehicle: saline): 97 % of control
- T/C (dose: 240.0 mg/kg/injection, schedule: Q01DX005 (ip), vehicle: saline): 99 % of control

SMILES: N/C(CCSc1ccccc1N=Cc1ccccc1O)=N/O
- T/C (dose: 12.5 mg/kg/injection, schedule: Q01DX009 (ip), vehicle: olive oil, sesame oil, peanut oil): 102 % of control
- T/C (dose: 25.0 mg/kg/injection, schedule: Q01DX009 (ip), vehicle: olive oil, sesame oil, peanut oil): 104 % of control
- T/C (dose: 50.0 mg/kg/injection, schedule: Q01DX009 (ip), vehicle: olive oil, sesame oil, peanut oil): 104 % of control

SMILES: CC(C)(C)N=C(Cc1ccccc1)N1CCCCC1
- T/C [3]: 100 % of control
- T/C [4]: 96 % of control

SMILES: O=C(NC(Cc1ccc(O)cc1)C(=O)O)C(=O)c1c[nH]c2ccc([N+](=O)[O-])cc12 (centres undefined)
- T/C [9]: 97 % of control
- T/C [10]: 97 % of control
- T/C [11]: 89 % of control

SMILES: O=C(O)COC1CC(=O)N2c3ccccc3C34CCN5C(=O)C(=O)C(CC53)C1C24 (centres undefined)
- T/C [9]: 96 % of control
- T/C [10]: 95 % of control
- T/C [11]: 88 % of control

SMILES: CCCCOCN(COCCCC)CC(C)(C)C
- T/C [3]: 107 % of control
- T/C [4]: 105 % of control
- T/C [5]: 109 % of control

SMILES: O=C(Nc1ccccc1)N1c2ccccc2SC1c1ccco1 (centres undefined)
- T/C [6]: 101 % of control
- T/C [7]: 100 % of control
- T/C [8]: 92 % of control

SMILES: CN(C)/N=C/C=C1\N=C(c2ccccc2)OC1=O
- T/C [6]: 107 % of control
- T/C [7]: 104 % of control
- T/C [8]: 106 % of control
